We go through ten compounds from patent US5288751A, “[(Substituted) phenyalkyl]furylalkynyl-and [substituted) phenyalkyl] thienylalkynyl-N-hydroxyurea inhibitors or leukotriene biosynthesis” (Abbott Laboratories, priority 1992, dated 1994).

The subject of experiment [1] is Stimulated LTB4 Formation in Human Whole Blood. Briefly: Calcium ionophore (A23187)-induced LTB4 biosynthesis in human whole blood (in vitro leukotriene biosynthesis inhibition). Format: cell-based. The settings on record: human heparinized whole blood, A23187 8.3 μM, 30 minutes; for IC50: 15 min preincubation at 37° C.; for % inhibition of stimulated LTB4 formation in human whole blood: test concentration not stated. The protocol:
Inhibition of leukotriene biosynthesis was evaluated in an assay, involving calcium ionophore-induced LTB4 biosynthesis expressed human whole blood. Human heparinized whole blood was preincubated with test compounds or vehicle for 15 min at 37° C. followed by calcium ionophore A23187 challenge (final concentration of 8.3 μM) and the reaction terminated after 30 minutes by adding two volumes of methanol containing prostaglandin B2 as an internal recovery standard. The methanol extract was analyzed for LTB4 using a commercially available radioimmunoassay.
In Vitro Inhibitory Potencies Against Stimulated LTB4 Formation

Experiment [2] relates to biosynthesis of leukotrienes (peritoneal fluid leukotriene levels). The experiment in a line: Inhibition of leukotriene biosynthesis in vivo, rat peritoneal anaphylaxis model, oral administration. The settings on record: single 30 μmol/kg oral dose, gavage one hour prior to antigen challenge, 15 minutes after challenge. As for the experimental part:
Inhibition of the biosynthesis of leuktrienes in vivo after oral administration of compound was determined using a rat peritoneal anaphylaxis model in a similar manner as that described by Young and coworkers (Young, P. R.; Dyer, R. D.; Carter, G. W., Fed. Proc., Fed. Am. Soc. Exp. Biol. 1985, 44: 1185). In this model rats were injected intraperitoneally (ip) with rabbit antibody to bovine serum albumin (BSA) and three hours later injected ip with BSA to induce an antigen-antibody response. Rats were sacrificed 15 minutes after this challenge and the peritoneal fluids were collected and analyzed for leukotriene levels. Test compounds were administered by gavage one hour prior to the antigen challenge. Percent inhibition values were determined by comparing the treatment group to the mean of the control group. Compounds of this invention prevent the formation of leukotrienes in this model after oral administration in a range of 1-200 μmol/kg.

Usually IC50 stands for the concentration at which inhibition is half-maximal. `CC(C#Cc1ccc(Cc2ccc(F)cc2)o1)N(O)C(N)=O` (stereo not drawn) [Example 1, N-{3-[5-(4-Fluorophenylmethyl)fur-2-yl]-1-methyl-2-propynyl}-N-hydroxyurea]: in experiment [1], the IC50 was 60 nM. Further, the “% inhibition of leukotriene formation in vivo” value in experiment [2] was found to be 68%.

For the compound `CC(C#Cc1ccc(C(=O)c2ccc(F)cc2)o1)N(O)C(N)=O` (stereo not drawn) [Example 2], in experiment [1], the “% inhibition of stimulated LTB4 formation in human whole blood” value (“% inhibition … in human whole blood” below) was determined as 72%.

As to `CC(C#Cc1ccc(/C=C/c2cccnc2)o1)N(O)C(N)=O` (stereo not drawn) [Example 4, N-Hydroxy-N-[4-(5-{2-[3-pyridyl]ethenyl}fur-2-yl)-1-methyl-2-propynyl]urea], the “% inhibition … in human whole blood” value in experiment [1] came to 39%.

Take `CC(C#Cc1ccc(/C=C/c2ccc(F)cc2)o1)N(O)C(N)=O` (stereo not drawn) [Example 5, N-[4-(5-{2-[4-Fluorophenyl]ethenyl}fur-2-yl)-1-methyl-2-propynyl]-N-hydroxyurea]: the IC50 in experiment [1] was 620 nM.

Consider `CC(C#Cc1ccc(/C=C/c2ccccc2)o1)N(O)C(N)=O` (stereo not drawn) [Example 6, N-Hydroxy-N-[4-(5-{2-phenylethenyl}fur-2-yl)-1-methyl-2-propynyl]urea], for which the “% inhibition … in human whole blood” value in experiment [1] worked out at 40%.

For `CC(C#Cc1ccc(/C=C/c2ccccn2)o1)N(O)C(N)=O` (stereo not drawn) [Example 7, N-Hydroxy-N-[4-(5-{2-[2-pyridyl]ethenyl}fur-2-yl)-1-methyl-2-propynyl]urea], the IC50 in experiment [1] came to 350 nM.

Consider `CC(C#Cc1ccc(/C=C/c2ccc(F)cc2)s1)N(O)C(N)=O` (stereo not drawn) [Example 8], for which, in experiment [1], the “% inhibition … in human whole blood” value came out at 62%.

Regarding `Cc1ccc(/C=C/c2ccc(C#CC(C)N(O)C(N)=O)o2)cc1` (stereo not drawn) [Example 9, N-Hydroxy-N-[4-(5-{2-[5-methylphenyl]ethenyl}fur-2-yl)-1-methyl-2-propynyl]urea], in experiment [1], the IC50 is 300 nM.

Turning to `CC(C#Cc1ccc(Cc2ccc(F)cc2)s1)N(O)C(N)=O` (stereo not drawn) [Example 12, N-{3-[5-(4-Fluorophenylmethyl)-2-thienyl]-1-methyl-2-propynyl}-N-hydroxyurea], the IC50 in experiment [1] came out at 70 nM. For the same compound, the “% inhibition of leukotriene formation in vivo” value in experiment [2] was 72%.

On to `C[C@H](C#Cc1ccc(Cc2ccc(F)cc2)s1)N(O)C(N)=O` [Example 13, (R)-N-{3-[5-(4-Fluorophenylmethyl)-2-thienyl]-1-methyl-2-propynyl}-N-hydroxyurea], for which the IC50 in experiment [1] was 70 nM.
